Where no end group is shown, it is not given here.

In this series the test system is mesenchymal stem cells. The series can be described thus: MTT assay for cytotoxicity. It is filed as cell-based, mouse. The conditions noted are these: at concentrations effective for promoting osteogenic differentiation; FIG. 3. The protocol: At concentrations effective for calcium deposition, BFP 4 was analyzed for cytotoxicity. In this context, MTT ((3-(4,5-Dimethylthiazol-2-yl)-2,5-diphenyltetrazolium bromide, a yellow tetrazole) assay was performed using an MTT Cell Proliferation Assay Kit (Cayman Chemical) according to the instructions of the manufacturer.

In the case of “FFKATEVHFRSIRST [BFP 4, Phe-Phe-Lys-Ala-Thr-Glu-Val-His-Phe-Arg-Ser-Ile-Arg-Ser-Thr]”, the “Cytotoxicity (MTT)” value is “no cytotoxicity was detected”.

The values above are taken from patent publication US9238055B2, “Peptide bone forming peptide 4 for promoting osteogenesis or vascularization and use thereof” (Chonnam National University Hospital, priority 2011, dated 2016).
